Measured values as given in US7201928B1, “Extracts of orange peel for prevention and treatment of cancer” (Rutgers, The State University of New Jersey, priority 1999, dated 2007).
Where two headings read alike, the source gives them in different places.

How the values were obtained:
[1] = tested on: AOM-induced aberrant crypt foci (ACF); assay: AOM-induced formation of aberrant crypt foci (colon cancer model); assay type: in vivo, Female CF-1 mice; conditions: 0.2% in diet
Protocol: The orange peel extract was then tested in an in vivo model for colon cancer. Female CF-1 mice were injected with azoxymethane (AOM) once a week for four weeks at increasing doses (5, 10, 10 and 10 mg/kg). Orange peel extract was administered in the diet (0.2%) starting two weeks before the first AOM injection, during and continuing until the end of the experiment at 24 weeks. At week 24, the mice were given one last dose of AOM (10 mg/kg). The mice were then sacrificed and their colons removed (from anus to caecum). The colons were opened longitudinally, rinsed with normal saline, and stapled to a plastic sheet. The colon samples were placed in a 10% neutral buffered formalin solution for 24 hours. The entire colon was stained with 0.2% methylene blue dissolved in phosphate buffered saline for 20 minutes. The whole mount of colon samples were then examined using light microscopy for the presence of aberrant crypt (AC) or aberrant crypt foci (ACF). Both ACF and AC are biomarkers for colon cancer. […] Mice fed nordihydroxyguaiaretic acid (NDGA) in the diet (0.2%) were used as controls.

AOM-induced colon tumors = assay: AOM-induced colon tumorigenesis; conditions: 0.2% in AIN 76A diet + AOM
Protocol: In a similar experiment in the mouse colon cancer model, CF-1 mice were injected with AOM (5, 10, 10 and 10 mg/kg) starting at 6 weeks of age, once each week and then once at 37 weeks after the first dose of AOM. Throughout the treatment period, mice received either an AIN 76A diet or test compound in AIN 76A diet at 2 weeks before the first dose of AOM and continuing until the end of the experiment. The test compounds were NDGA (0.2%) and orange peel extract (0.2%). Colon samples were again obtained at sacrifice, stored in 10% formalin phosphate buffer, and then colon tumor number was determined.

W138 (normal) cells = assay: cell proliferation assay and morphology, normal cells; assay type: cell-based, human; conditions: for effect on normal cell growth: crystal violet, 0, 1, 5, 10, 20 or 50 μg/ml; for neutral β-galactosidase activity (staining), senescence marker: W138 cells
Protocol: (§1) In addition to testing for the activity of the complete orange peel extract, two of the identified extract components, tangeretin and nobeletin, were tested for their combined activity in a cell proliferation assay. The growth of W138 (normal) and W138VA (transformed) cells was tested in the presence of a mixture of tangeretin and nobeletin. The dye crystal violet was used for measuring growth of the cells. Cells were treated with either tangeretin alone (0, 1, 5, 10, 20 or 50 μg/ml), nobeletin alone (0, 1, 5, 10, 20 or 50 μg/ml) or a mixture of the two compounds at a total concentration of the two flavenoids of 0, 1, 5, 10, 20 or 50 μg/ml. […] The range of doses of the extract tested was 0, 1, 5, 10, 20 and 50 μg/ml.
(§2) W138 human diploid fibroblasts and cancerous SV40-transformed W138 cells (W138VA) were used in a cell proliferation assay. Growth rate and viability of these cells was determined following addition of resveratrol or one of its analogs. Doses tested ranged from 50 ng to 300 μg per ml or 1 μM to 100 μM concentrations in culture media. […] MR-1 was not active as an inhibitor of cell growth even at doses as high as 100 μM.
Treatment of W138 and W138VA cells with resveratrol and its analogs also led to morphological changes in the cells. Treatment of W138 cells with resveratrol and its analogs R-1 and R-3 led to elongation of normal W138 cells. Methoxy analogs such as MR-0 and MR-3 caused the flattening of W138 cells. This flattening was accompanied by an increase in neutral β-galactosidase activity as indicated by an increase in staining.

[2] = tested on: W138VA (transformed) cells; assay: cell proliferation assay, transformed cells; assay type: cell-based, human; conditions: for inhibition of cell growth in transformed cells: crystal violet, 0, 1, 5, 10, 20 or 50 μg/ml
Protocol: as §1, §2

[3] = tested on: oncogene-expressing, preneoplastic breast epithelial cells; assay: orthotransplant model, palpable tumor formation at transplant sites; conditions: AIN-76A diet supplemented with 400 ppm
Description: Mice were transplanted with oncogene-expressing, preneoplastic breast epithelial cells. Mice were then divided into groups with the control group fed AIN-76A diet alone. Another group of mice was fed AIN-76A diet supplemented with MR-3 (400 ppm).

184-B5/HER cells = assay: preclinical cell culture model for human ductal breast carcinoma in situ; assay type: cell-based; conditions: for cell cycle analysis: relative to solvent-treated control cultures
Protocol: Experiments were also performed in a preclinical cell culture model for human ductal breast carcinoma in situ (DCIS). The human breast-derived preneoplastic cell line 184-B5/HER expressed HER-2/neu, p53 and EGFR but not ER, therefore resembling the clinical DCIS. Initial dose-response experiments compared the growth inhibitory effect of orange peel extract on the parental 184-B5 cells and the HER-2/neu oncogene-expressing 184-B5/HER cells. […] Orange peel extract at the maximum cytostatic dose of 100 ppm accumulated the cells in the G0/G1 phase and inhibited the S+G2/M phase of the cell cycle, leading to down-regulation of cell cycle progression. […] Treatment of 184-B5/HER cells with 100 ppm orange peel extract induced a 7.6-fold increase in sub G0/G1 (apoptotic) population. Consistent with the induction of apoptosis, immunoreactivity to anti-apoptotic Bcl-2 was decreased by 33%.
Resveratrol and its analogs were also tested in preneoplastic 184-B5/HER human mammary epithelial cells.

W138 and W138VA cells = assay: cell proliferation assay, cell line not specified for the result; assay type: cell-based, human
Protocol: as §1, §2

[4] = read-out: concentration that inhibited growth by 50% (IC50), 184-B5/HER human mammary epithelial cells

CC(Cc1ccc(O)c(O)c1)C(C)Cc1ccc(O)c(O)c1 (stereo not shown) [NDGA, nordihydroxyguaiaretic acid]
AC/ACF ([1]; 24 weeks): 3.5 | AC/colon ([1]; 24 weeks): 9.4 ± 2.2 | ACF/colon ([1]; 24 weeks): 2.7 ± 0.9 | ACF: 1 AC/colon ([1]; 24 weeks): 6.8 ± 1.5 | ACF: 2 AC/colon ([1]; 24 weeks): 1.0 ± 0.3 | ACF: 3 AC/colon ([1]; 24 weeks): 0.2 ± 0.2 | ACF: 4 AC/colon ([1]; 24 weeks): 0 | ACF: 5 AC/colon ([1]; 24 weeks): 0 | ACF: 6 AC/colon ([1]; 24 weeks): 0 | ACF: 7 AC/colon ([1]; 24 weeks): 0 | inhibition of the number of ACF per colon ([1]; vs positive control): 48% | inhibition of the ratio of AC/ACF ([1]; vs positive control): 51% | Colon Tumors Per Mouse (AOM-induced colon tumors): 0.27 ± 0.14 | Percent Incidence (AOM-induced colon tumors): 27%

Oc1cc(O)cc(C=Cc2ccccc2)c1 [R-1, 3,5-dihydroxystilbene]
morphological changes of W138 cells (W138 (normal) cells): elongation

COc1ccc(-c2cc(=O)c3c(OC)c(OC)c(OC)c(OC)c3o2)cc1OC [nobeletin, 5,6,7,8,3′,4′-hexamethoxyflavone]
inhibition of cell growth in transformed cells [2]: only marginal effects | effect on normal cell growth (W138 (normal) cells): no effect

COc1ccc(C=Cc2cc(OC)c(OC)c(OC)c2)cc1 [MR-3, 3,4,4′,5-tetramethoxystilbene]
toxicity (weight gains comparable) ([3]; 12 weeks): little toxicity | tumor incidence ([3]; 12 weeks of continuous feeding): 20% | proliferation of W138VA cells ([2]; 1 μM): completely blocked proliferation | morphological changes of W138 cells (W138 (normal) cells): flattening | growth of W138 cells (W138 (normal) cells; 1 μM): no effect | neutral β-galactosidase activity (staining), senescence marker (W138 (normal) cells): increase | IC50 (184-B5/HER cells; Homo sapiens, 184B5, read-out: concentration that inhibited growth by 50% (IC50)): 1 µM | cell cycle analysis (184-B5/HER cells): progressive arrest of cells in the G2/M phase

Oc1ccc(C=Cc2cc(O)c(O)c(O)c2)cc1 [R-3, 3,4,4′,5-tetrahydroxystilbene]
morphological changes of W138 cells (W138 (normal) cells): elongation | inhibition of cell growth (W138 and W138VA cells; tested 1 μM to 100 μM): inhibited cell growth

COc1cc(C=Cc2ccccc2)cc(OC)c1 [MR-1, 3,5-dimethoxystilbene]
activity as inhibitor of cell growth (W138 and W138VA cells; doses as high as 100 μM): not active

Oc1ccc(C=Cc2cc(O)cc(O)c2)cc1 [resveratrol, reference compound]
morphological changes of W138 cells (W138 (normal) cells): elongation | concentration inhibiting cell growth (W138 and W138VA cells; tested 1 μM to 100 μM): less than 10 μM

COc1ccc(-c2cc(=O)c3c(OC)c(OC)c(OC)c(OC)c3o2)cc1 [tangeretin, 5,6,7,8,4′-pentamethoxyflavone]
inhibition of cell growth in transformed cells [2]: only marginal effects | effect on normal cell growth (W138 (normal) cells): no effect

COc1ccc(C=Cc2cc(OC)cc(OC)c2)cc1 [MR-0, 3, 4′,5-trimethoxystilbene]
morphological changes of W138 cells (W138 (normal) cells): flattening | neutral β-galactosidase activity (staining), senescence marker (W138 (normal) cells): increase | inhibition of cell growth (W138 and W138VA cells; tested 1 μM to 100 μM): inhibited cell growth | IC50 (184-B5/HER cells; [4]): 10.5 µM | cell cycle analysis (184-B5/HER cells): progressive arrest of cells in the G2/M phase

COc1cc(C=Cc2ccc(OC)c(OC)c2)cc(OC)c1 [MR-2, 3,3′,4,5′-tetramethoxystilbene]
IC50 (184-B5/HER cells; [4]): 120 µM | cell cycle analysis (184-B5/HER cells): progressive arrest of cells in the G2/M phase

COc1cc(C=Cc2cc(OC)cc(OC)c2)cc(OC)c1 [MR-4, 3,3′,5′5′-tetramethoxystilbene]
growth of W138 cells (W138 (normal) cells; 100 μM): inhibited growth
